In the kinase profiling compilation of Christmann-Franck et al. (2016):
Values belong to the molecule of their own block, whether it stands above or below them.

Key:
Experiment in all cases: KINOMEscan competition binding
Settings in all cases: compound 10.0 µM
STK17B (human) = STK17B (human) (UniProt O94768)
DAPK1 (human) = DAPK1 (human) (UniProt P53355)
DAPK3 (human) = DAPK3 (human) (UniProt O43293)
DAPK2 (human) = DAPK2 (human) (UniProt Q9UIK4)
PIM3 (human) = PIM3 (human) (UniProt Q86V86)
PIK3CB (human) = PIK3CB (human) (UniProt P42338)
PIM2 (human) = PIM2 (human) (UniProt Q9P1W9)
Sequence of PIM2 (human) (Q9P1W9 whole entry, looked up): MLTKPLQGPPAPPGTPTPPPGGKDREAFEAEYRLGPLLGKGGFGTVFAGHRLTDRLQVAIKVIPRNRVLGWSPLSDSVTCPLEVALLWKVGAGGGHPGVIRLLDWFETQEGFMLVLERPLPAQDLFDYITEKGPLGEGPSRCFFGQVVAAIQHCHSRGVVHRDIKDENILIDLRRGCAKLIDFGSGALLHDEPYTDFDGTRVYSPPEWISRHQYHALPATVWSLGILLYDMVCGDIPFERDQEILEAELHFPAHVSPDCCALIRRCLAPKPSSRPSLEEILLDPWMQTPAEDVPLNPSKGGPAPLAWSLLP

ZAP70 (human) = ZAP70 (human) (UniProt P43403)
RPS6KA4 KD2 (human) = RPS6KA4 KD2 (human) (UniProt O75676)
Sequence of RPS6KA4 KD2 (human) (O75676 whole entry, looked up): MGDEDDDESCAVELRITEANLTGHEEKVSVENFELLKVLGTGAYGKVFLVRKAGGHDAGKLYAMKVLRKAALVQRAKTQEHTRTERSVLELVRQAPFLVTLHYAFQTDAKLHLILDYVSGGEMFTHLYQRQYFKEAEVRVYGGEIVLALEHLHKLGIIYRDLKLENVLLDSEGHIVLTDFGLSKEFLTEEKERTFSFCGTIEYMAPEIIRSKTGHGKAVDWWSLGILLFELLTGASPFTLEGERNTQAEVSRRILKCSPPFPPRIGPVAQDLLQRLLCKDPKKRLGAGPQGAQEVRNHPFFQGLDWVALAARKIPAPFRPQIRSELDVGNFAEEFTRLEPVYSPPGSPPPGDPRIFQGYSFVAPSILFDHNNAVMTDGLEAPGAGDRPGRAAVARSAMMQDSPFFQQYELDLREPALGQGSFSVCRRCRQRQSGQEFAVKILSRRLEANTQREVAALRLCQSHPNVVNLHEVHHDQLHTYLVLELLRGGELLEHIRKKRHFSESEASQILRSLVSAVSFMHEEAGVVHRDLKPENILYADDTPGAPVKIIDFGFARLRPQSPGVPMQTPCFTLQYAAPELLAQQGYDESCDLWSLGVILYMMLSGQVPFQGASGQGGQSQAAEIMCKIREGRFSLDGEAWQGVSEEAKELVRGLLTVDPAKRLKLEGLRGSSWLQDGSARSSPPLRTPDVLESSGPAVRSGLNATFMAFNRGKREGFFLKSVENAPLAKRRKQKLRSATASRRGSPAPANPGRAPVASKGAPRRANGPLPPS

[1] = target: TYK2 JH2 pseudokinase (human) (UniProt P29597)
CSNK2A1 (human) = CSNK2A1 (human) (UniProt P68400)
CLK3 (human) = CLK3 (human) (UniProt P49761)
AAK1 (human) = AAK1 (human) (UniProt Q2M2I8)
CDK7 (human) = CDK7 (human) (UniProt P50613)
RIOK3 (human) = RIOK3 (human) (UniProt O14730)
DYRK1B (human) = DYRK1B (human) (UniProt Q9Y463)
NEK2 (human) = NEK2 (human) (UniProt P51955)
TAOK1 (human) = TAOK1 (human) (UniProt Q7L7X3)
ACVR2B (human) = ACVR2B (human) (UniProt Q13705)
STK17A (human) = STK17A (human) (UniProt Q9UEE5)
PLK4 (human) = PLK4 (human) (UniProt O00444)
CLK1 (human) = CLK1 (human) (UniProt P49759)
MAPK15 (human) = MAPK15 (human) (UniProt Q8TD08)
MAP2K4 (human) = MAP2K4 (human) (UniProt P45985)
CLK2 (human) = CLK2 (human) (UniProt P49760)
TAOK3 (human) = TAOK3 (human) (UniProt Q9H2K8)
Sequence of TAOK3 (human) (Q9H2K8 whole entry, looked up): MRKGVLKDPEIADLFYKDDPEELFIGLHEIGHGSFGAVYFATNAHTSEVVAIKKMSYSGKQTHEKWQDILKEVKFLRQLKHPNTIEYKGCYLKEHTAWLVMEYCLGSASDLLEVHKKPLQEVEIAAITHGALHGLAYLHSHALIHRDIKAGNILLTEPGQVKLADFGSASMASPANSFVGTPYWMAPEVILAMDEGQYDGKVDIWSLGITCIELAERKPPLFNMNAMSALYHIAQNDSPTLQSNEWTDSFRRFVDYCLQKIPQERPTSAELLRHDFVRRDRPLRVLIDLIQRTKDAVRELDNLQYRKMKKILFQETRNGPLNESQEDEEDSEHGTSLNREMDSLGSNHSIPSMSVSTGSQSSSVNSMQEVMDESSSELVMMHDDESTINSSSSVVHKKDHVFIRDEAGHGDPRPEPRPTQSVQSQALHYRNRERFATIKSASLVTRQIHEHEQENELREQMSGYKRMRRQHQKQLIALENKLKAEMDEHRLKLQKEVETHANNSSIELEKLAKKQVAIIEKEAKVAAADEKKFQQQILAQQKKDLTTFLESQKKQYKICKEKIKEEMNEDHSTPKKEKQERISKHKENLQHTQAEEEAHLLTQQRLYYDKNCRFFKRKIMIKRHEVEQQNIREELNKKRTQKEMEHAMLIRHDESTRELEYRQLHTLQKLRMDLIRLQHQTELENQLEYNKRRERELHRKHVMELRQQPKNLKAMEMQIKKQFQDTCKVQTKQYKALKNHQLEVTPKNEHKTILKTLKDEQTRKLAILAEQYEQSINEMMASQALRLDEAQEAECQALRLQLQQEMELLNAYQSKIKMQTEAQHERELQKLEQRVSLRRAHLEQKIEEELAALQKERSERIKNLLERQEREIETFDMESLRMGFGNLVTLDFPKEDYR

PIP4K2B (human) = PIP4K2B (human) (UniProt P78356)
HIPK1 (human) = HIPK1 (human) (UniProt Q86Z02)
BMPR1B (human) = BMPR1B (human) (UniProt O00238)
CHUK (human) = CHUK (human) (UniProt O15111)
BMP2K (human) = BMP2K (human) (UniProt Q9NSY1)
CSNK2A2 (human) = CSNK2A2 (human) (UniProt P19784)
ACVR2A (human) = ACVR2A (human) (UniProt P27037)
SRPK3 (human) = SRPK3 (human) (UniProt Q9UPE1)
RIOK1 (human) = RIOK1 (human) (UniProt Q9BRS2)
PIM1 (human) = PIM1 (human) (UniProt P11309)
MINK1 (human) = MINK1 (human) (UniProt Q8N4C8)
MAP2K3 (human) = MAP2K3 (human) (UniProt P46734)
RPS6KA5 KD2 (human) = RPS6KA5 KD2 (human) (UniProt O75582)
CLK4 (human) = CLK4 (human) (UniProt Q9HAZ1)

Sequence of STK17B (human) (O94768 whole entry, looked up): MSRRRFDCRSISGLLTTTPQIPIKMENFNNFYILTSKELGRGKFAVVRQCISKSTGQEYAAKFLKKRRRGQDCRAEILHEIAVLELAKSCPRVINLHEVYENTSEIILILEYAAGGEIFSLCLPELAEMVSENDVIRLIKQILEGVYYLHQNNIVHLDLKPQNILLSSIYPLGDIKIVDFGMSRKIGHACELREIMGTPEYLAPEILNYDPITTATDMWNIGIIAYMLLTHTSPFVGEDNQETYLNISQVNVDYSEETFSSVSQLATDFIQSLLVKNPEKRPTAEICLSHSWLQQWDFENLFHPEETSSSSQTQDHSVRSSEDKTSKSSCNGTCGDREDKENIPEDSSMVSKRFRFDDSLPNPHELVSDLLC
Sequence of DAPK3 (human) (O43293 whole entry, looked up): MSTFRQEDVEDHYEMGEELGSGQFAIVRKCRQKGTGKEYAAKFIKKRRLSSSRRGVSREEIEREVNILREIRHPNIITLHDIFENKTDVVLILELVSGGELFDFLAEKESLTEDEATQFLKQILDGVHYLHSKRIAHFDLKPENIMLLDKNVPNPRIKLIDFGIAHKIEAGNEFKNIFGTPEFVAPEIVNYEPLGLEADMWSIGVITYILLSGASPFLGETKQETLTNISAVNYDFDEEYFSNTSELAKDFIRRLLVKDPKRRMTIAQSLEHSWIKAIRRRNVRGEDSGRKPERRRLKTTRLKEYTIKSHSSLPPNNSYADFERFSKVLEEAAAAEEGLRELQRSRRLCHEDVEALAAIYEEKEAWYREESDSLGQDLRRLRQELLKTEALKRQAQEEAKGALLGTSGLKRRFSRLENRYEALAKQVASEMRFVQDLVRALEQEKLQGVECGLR
Sequence of DAPK2 (human) (Q9UIK4 whole entry, looked up): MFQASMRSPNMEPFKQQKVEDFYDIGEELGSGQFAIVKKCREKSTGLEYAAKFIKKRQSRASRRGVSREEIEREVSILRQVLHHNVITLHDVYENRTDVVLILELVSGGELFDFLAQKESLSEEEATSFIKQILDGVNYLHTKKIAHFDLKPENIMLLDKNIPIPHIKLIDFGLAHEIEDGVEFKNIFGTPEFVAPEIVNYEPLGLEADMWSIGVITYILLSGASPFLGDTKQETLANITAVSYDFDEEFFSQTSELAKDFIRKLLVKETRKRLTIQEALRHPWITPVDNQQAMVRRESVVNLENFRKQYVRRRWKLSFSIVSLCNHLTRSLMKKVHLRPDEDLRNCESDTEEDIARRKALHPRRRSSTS
Sequence of DAPK1 (human) (P53355 whole entry, looked up): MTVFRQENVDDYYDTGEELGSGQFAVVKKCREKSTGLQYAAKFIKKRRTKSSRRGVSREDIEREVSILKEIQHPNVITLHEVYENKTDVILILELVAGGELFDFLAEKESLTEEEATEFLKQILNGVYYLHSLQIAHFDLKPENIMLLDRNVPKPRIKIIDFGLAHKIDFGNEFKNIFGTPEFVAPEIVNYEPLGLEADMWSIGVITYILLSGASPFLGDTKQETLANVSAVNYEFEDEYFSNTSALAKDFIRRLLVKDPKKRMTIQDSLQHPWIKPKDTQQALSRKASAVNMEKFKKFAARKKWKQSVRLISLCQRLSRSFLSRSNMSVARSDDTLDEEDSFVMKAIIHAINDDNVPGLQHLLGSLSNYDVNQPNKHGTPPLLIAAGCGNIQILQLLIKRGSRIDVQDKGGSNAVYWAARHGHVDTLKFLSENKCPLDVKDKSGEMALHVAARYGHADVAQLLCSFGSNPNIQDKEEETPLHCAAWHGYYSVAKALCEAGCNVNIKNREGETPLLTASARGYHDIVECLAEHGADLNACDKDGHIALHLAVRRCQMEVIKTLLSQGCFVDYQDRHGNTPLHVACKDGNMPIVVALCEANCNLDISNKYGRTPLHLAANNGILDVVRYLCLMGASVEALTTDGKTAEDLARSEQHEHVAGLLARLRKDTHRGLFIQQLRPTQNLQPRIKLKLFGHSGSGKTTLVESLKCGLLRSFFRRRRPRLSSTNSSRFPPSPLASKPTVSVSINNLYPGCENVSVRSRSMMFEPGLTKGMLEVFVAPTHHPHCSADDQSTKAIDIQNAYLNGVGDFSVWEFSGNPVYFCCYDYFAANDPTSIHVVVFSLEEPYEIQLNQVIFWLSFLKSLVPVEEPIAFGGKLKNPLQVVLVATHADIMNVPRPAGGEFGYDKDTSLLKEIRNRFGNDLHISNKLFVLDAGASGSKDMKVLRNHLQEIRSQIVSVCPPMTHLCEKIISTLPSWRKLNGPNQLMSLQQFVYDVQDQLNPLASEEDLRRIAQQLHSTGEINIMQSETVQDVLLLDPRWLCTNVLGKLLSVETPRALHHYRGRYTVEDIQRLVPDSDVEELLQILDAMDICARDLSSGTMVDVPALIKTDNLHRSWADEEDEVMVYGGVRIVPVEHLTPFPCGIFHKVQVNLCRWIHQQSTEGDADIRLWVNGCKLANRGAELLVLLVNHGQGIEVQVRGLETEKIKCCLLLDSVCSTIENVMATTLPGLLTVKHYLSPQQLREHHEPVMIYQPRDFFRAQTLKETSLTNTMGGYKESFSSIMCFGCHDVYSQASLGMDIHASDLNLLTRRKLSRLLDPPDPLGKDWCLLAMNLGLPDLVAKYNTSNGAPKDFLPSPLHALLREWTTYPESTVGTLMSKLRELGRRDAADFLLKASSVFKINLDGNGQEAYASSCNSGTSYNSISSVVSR

kinase still bound, per cent of control (STK17B (human)): 18% | kinase still bound, per cent of control (DAPK1 (human)): 4.4% | kinase still bound, per cent of control (DAPK3 (human)): 10% | kinase still bound, per cent of control (DAPK2 (human)): 10% | kinase still bound, per cent of control (PIM3 (human)): 30% | kinase still bound, per cent of control (PIK3CB (human)): 6.2% | kinase still bound, per cent of control (PIM2 (human)): 14% | kinase still bound, per cent of control (ZAP70 (human)): 11% | kinase still bound, per cent of control (RPS6KA4 KD2 (human)): 3.2% | kinase still bound, per cent of control [1]: 14%
Compound: O=C1NC(=O)/C(=C/c2cc(-c3ccc(N4CCNCC4)nc3)c[nH]c2=O)S1

kinase still bound, per cent of control (CSNK2A1 (human)): 26% | kinase still bound, per cent of control (STK17B (human)): 28% | kinase still bound, per cent of control (DAPK1 (human)): 12% | kinase still bound, per cent of control (DAPK3 (human)): 9.4% | kinase still bound, per cent of control (CLK3 (human)): 3.5% | kinase still bound, per cent of control (AAK1 (human)): 13% | kinase still bound, per cent of control (CDK7 (human)): 26% | kinase still bound, per cent of control (RIOK3 (human)): 17% | kinase still bound, per cent of control (DYRK1B (human)): 23% | kinase still bound, per cent of control (NEK2 (human)): 30% | kinase still bound, per cent of control (DAPK2 (human)): 5.2% | kinase still bound, per cent of control (TAOK1 (human)): 4.2% | kinase still bound, per cent of control (ACVR2B (human)): 16% | kinase still bound, per cent of control (STK17A (human)): 23% | kinase still bound, per cent of control (PLK4 (human)): 24% | kinase still bound, per cent of control (CLK1 (human)): 16% | kinase still bound, per cent of control (PIM3 (human)): 12% | kinase still bound, per cent of control (MAP2K4 (human)): 24% | kinase still bound, per cent of control (CLK2 (human)): 5.1% | kinase still bound, per cent of control (TAOK3 (human)): 22% | kinase still bound, per cent of control (PIM2 (human)): 4.8% | kinase still bound, per cent of control (PIP4K2B (human)): 22% | kinase still bound, per cent of control (HIPK1 (human)): 16% | kinase still bound, per cent of control (BMPR1B (human)): 5.7% | kinase still bound, per cent of control (CHUK (human)): 18% | kinase still bound, per cent of control (BMP2K (human)): 13% | kinase still bound, per cent of control (CSNK2A2 (human)): 25% | kinase still bound, per cent of control (ACVR2A (human)): 25% | kinase still bound, per cent of control (SRPK3 (human)): 33% | kinase still bound, per cent of control (RIOK1 (human)): 31% | kinase still bound, per cent of control (PIM1 (human)): 16% | kinase still bound, per cent of control (RPS6KA4 KD2 (human)): 0.9% | kinase still bound, per cent of control (MINK1 (human)): 24% | kinase still bound, per cent of control (MAP2K3 (human)): 2.2% | kinase still bound, per cent of control (RPS6KA5 KD2 (human)): 2.2% | kinase still bound, per cent of control (CLK4 (human)): 28%
Compound: N=C1NC(=O)/C(=C/c2c[nH]c(=O)c(-c3ccc(S(N)(=O)=O)cc3)c2)S1
kinase still bound, per cent of control (MAPK15 (human)): 3.3%
